Results from patent US20040072738A1, “Analogues of thiocoraline and be-22179” (priority 2000, published 2004).
In brackets after ≈: the same amount, converted by molar mass. Bridge positions count the residues as written; N and C are the ends. Square brackets hold non-standard residues; d marks the D form. Peptide text beside a SMILES is read from it. I, II: the chains in the order shown. * marks the point of attachment. Quinaldoyl(3-OH,6-OMe) = COc1ccc2nc(C(=O)*)c(O)cc2c1; Quinoxaline2carbonyl = O=C(c1cnc2ccccc2n1)*; Quinaldoyl(3-OH) = O=C(c1nc2ccccc2cc1O)*; Fmoc = O=C(OCC1c2ccccc2-c2ccccc21)*; Quinaldoyl = O=C(c1ccc2ccccc2n1)*; NMeC = CN[C@@H](CS)C(=O)O; Cbz = O=C(OCc1ccccc1)*; NMeDha = C=C(NC)C(=O)O

What was measured:
[1] = solubility in aqueous buffer; assay type: physicochemical
[2] = cytotoxic activity in the L1210 assays
[3] = system: L1210 cell line; test: cytotoxic activity in the L1210 assays; settings: L1210 assays
[4] = system: supercoiled ΦX174 DNA; test: unwinding and rewinding of negatively supercoiled DNA, agarose gel electrophoresis; assay type: biochemical
Source text: Confirmation that thiocoraline and BE-22179 bind to DNA with bisintercalation was derived from their ability to induce the unwinding of negatively supercoiled DNA. This was established by their ability to gradually decrease the agarose gel electrophoresis mobility of supercoiled ΦX174 DNA (unwinding) at increasing concentrations followed by a return to normal mobility (rewinding) at even higher concentrations. Under the conditions employed, echinomycin unwound ΦX174 DNA at a 0.044 agent/base pair ratio (FIG. 11 and FIG. 12). Thiocoraline completely unwound ΦX174 DNA at a higher 0.11 agent/base pair ratio, whereas BE-22179 required even higher concentrations producing the unwinding at an agent/base pair ratio of 1.1. […] Thus, the distinctions in 1 and 2 and echinomycin detected here appear to be related to the nature of the cyclic depsipeptide and not the structure of the chromophore.
FIG. 8 is a table of comparative DNA binding properties. ^aCalf thymus DNA, KB=apparent binding constant determined by fluorescence quenching. The value in paren-theses is the agent/base pair ratio at saturated high-affinity binding and may be considered a measure of the selectivity of binding. ^bAgent/base pair ratio required to unwind negatively supercoiled FX174 DNA (form I to form II gel mobility, 0.9% agarose gel). ^cAgent/base pair ratio required to induce complete rewinding or positive super-coiling of FX174 DNA (form II to form I gel mobility, 0.9% agarose gel). ^dBinding constant established by footprinting at a 5′-CCGC site (FIG. 9).
(A) Lane 1, untreated supercoiled FX174 DNA, 95% form 1 and 5% form II; lanes 2-8, thiocoraline-treated FX174 DNA; lanes 9-14, echinomycin-treated FX174 DNA. The [agent]-to-[base pair] ratios were 0.022 (lanes 2 and 9), 0.033 (lanes 3 and 10), 0.044 (lanes 4 and 11), 0.066 (lanes 5 and 12), 0.11 (lanes 6 and 13), 0.22 (lanes 7 and 14), and 0.44 (lane 8). (B) Lane 1, untreated supercoiled FX174 DNA, lanes 2-12, BE-22179-treated FX174 DNA. The [agent]-to-[base pair] ratios were 0.022, (lane 2), 0.033 (lane 3), 0.044 (lane 4), 0.066 (lane 5), 0.11 (lane 6), 0.22 (lane 7), and 0.33 (lane 8), 0.44 (lane 9), 0.66 (lane 10), 1.1 (lane 11), and 2.2 (lane 12). (C) Lane 1, untreated supercoiled FX174 DNA, 95% form 1 and 5% form II; lanes 2-8, thiocoraline analogue (27)-treated FX174 DNA. The [agent]-to-[base pair] ratios were 0.022 (lane 2), 0.033 (lane 3), 0.044 (lane 4), 0.066 (lane 5), 0.11 (lane 6), 0.22 (lane 7), and 0.44 (lane 8).

[5] = biological target: HIV-1 reverse transcriptase (Human immunodeficiency virus type 1 group M subtype B, UniProt P03366); test: inhibition of HIV-1 reverse transcriptase; assay type: biochemical

## C=C1C(=O)SC[C@@H](NC(=O)c2nc3ccccc3cc2O)C(=O)NCC(=O)N(C)[C@H]2CSSC[C@@H](C(=O)N1C)N(C)C(=O)CNC(=O)[C@H](NC(=O)c1nc3ccccc3cc1O)CSC(=O)C(=C)N(C)C2=O [BE-22179] (I: {Quinaldoyl(3-OH)}-[dC]G[NMeC][NMeDha] / II: {Quinaldoyl(3-OH)}-[dC]G[NMeC][NMeDha]; thioester I:1-II:C, I:C-II:1; disulfide I:3-II:3)
[1]; Tris-HCl pH 7.4, 75 mM NaCl, read-out: agent concentrations where the compounds are soluble
  solubility: 1 to 10 µM (≈ 1.06 to 10.6 µg/mL)
[2]
  IC50: 0.4 nM

## CSC[C@H]1C(=O)SC[C@@H](NC(=O)OCc2ccccc2)C(=O)NCC(=O)N(C)[C@H]2CSSC[C@@H](C(=O)N1C)N(C)C(=O)CNC(=O)[C@H](NC(=O)OCc1ccccc1)CSC(=O)[C@H](CSC)N(C)C2=O [Compound 23, [N-Cbz-D-Cys-Gly-NMe-L--Cys-NMe-L--Cys(Me)]2 (Cysteine Thiol) Dilactone] (I: Cbz-[dC]G[NMeC][NMeC](Me) / II: Cbz-[dC]G[NMeC][NMeC](Me); thioester I:1-II:C, I:C-II:1; disulfide I:3-II:3)
[3]
  cytotoxic activity (in words): inactive

## CSC[C@H]1C(=O)SC[C@@H](NC(=O)c2ccc3ccccc3n2)C(=O)NCC(=O)N(C)[C@H]2CSSC[C@@H](C(=O)N1C)N(C)C(=O)CNC(=O)[C@H](NC(=O)c1ccc3ccccc3n1)CSC(=O)[C@H](CSC)N(C)C2=O [Compound 26, [N-(2-Quinoline Carboxyl)-D-Cys-Gly-NMe-L--Cys-NMe-L--Cys(Me)]2 (Cysteine Thiol) Dilactone] (I: Quinaldoyl-[dC]G[NMeC][NMeC](Me) / II: Quinaldoyl-[dC]G[NMeC][NMeC](Me); thioester I:1-II:C, I:C-II:1; disulfide I:3-II:3)
[3]
  cytotoxic activity (in words): less potent cytotoxic activity

## CSC[C@H]1C(=O)SC[C@@H](NC(=O)c2cnc3ccccc3n2)C(=O)NCC(=O)N(C)[C@H]2CSSC[C@@H](C(=O)N1C)N(C)C(=O)CNC(=O)[C@H](NC(=O)c1cnc3ccccc3n1)CSC(=O)[C@H](CSC)N(C)C2=O [Compound 27, [N-(2-Quinoxaline carboxyl)-D-Cys-Gly-NMe-L--Cys-NMe-L--CYS(Me)]2 (Cysteine Thiol) Dilactone] (I: Quinoxaline2carbonyl-[dC]G[NMeC][NMeC](Me) / II: Quinoxaline2carbonyl-[dC]G[NMeC][NMeC](Me); thioester I:1-II:C, I:C-II:1; disulfide I:3-II:3)
[3]
  cytotoxic activity (in words): less potent cytotoxic activity

## COc1ccc2nc(C(=O)N[C@@H]3CSC(=O)[C@H](CSC)N(C)C(=O)[C@@H]4CSSC[C@@H](C(=O)N(C)[C@@H](CSC)C(=O)SC[C@@H](NC(=O)c5nc6ccc(OC)cc6cc5O)C(=O)NCC(=O)N4C)N(C)C(=O)CNC3=O)c(O)cc2c1 [Compound 28, [N-(3-Hydroxy-6-methoxy-2-quinoline carboxyl)-D-Cys-Gly-NMe-L--CyS-NMe-L--Cys(Me)]2 (Cysteine Thiol) Dilactone] (I: {Quinaldoyl(3-OH,6-OMe)}-[dC]G[NMeC][NMeC](Me) / II: {Quinaldoyl(3-OH,6-OMe)}-[dC]G[NMeC][NMeC](Me); thioester I:1-II:C, I:C-II:1; disulfide I:3-II:3)
[3]
  cytotoxic activity (in words): potent activity

## CSC[C@H]1C(=O)SC[C@@H](NC(=O)OCC2c3ccccc3-c3ccccc32)C(=O)NCC(=O)N(C)[C@H]2CSSC[C@@H](C(=O)N1C)N(C)C(=O)CNC(=O)[C@H](NC(=O)OCC1c3ccccc3-c3ccccc31)CSC(=O)[C@H](CSC)N(C)C2=O [Compound 32] (I: Fmoc-[dC]G[NMeC][NMeC](Me) / II: Fmoc-[dC]G[NMeC][NMeC](Me); thioester I:1-II:C, I:C-II:1; disulfide I:3-II:3)
[3]
  cytotoxic activity (in words): inactive

## CS[C@H]1SC[C@H]2C(=O)N(C)[C@@H](C(C)C)C(=O)OC[C@@H](NC(=O)c3cnc4ccccc4n3)C(=O)N[C@@H](C)C(=O)N(C)[C@@H]1C(=O)N(C)[C@@H](C(C)C)C(=O)OC[C@@H](NC(=O)c1cnc3ccccc3n1)C(=O)N[C@@H](C)C(=O)N2C [echinomycin, reference compound]
[4]; form I to form II gel mobility
  agent/base pair ratio required to unwind supercoiled DNA: 0.044 agent/base pair ratio
[4]; form II to form I gel mobility
  agent/base pair ratio for complete rewinding of supercoiled DNA: 0.22 agent/base pair ratio
[5]
  inhibition of HIV-1 reverse transcriptase (in words): weak inhibitor
[1]
  solubility (in words): low solubility
